This passage reports IC50 results from patent US8546405B2, “Anti-viral compounds” (Abbott Laboratories, priority 2008, dated 2013).

This assay has as its system replicon 1b-Con1. Put plainly: HCV subgenomic replicon luciferase reporter assay, replicon 1b-Con1. The assay is classed as cell-based, Hepatitis C virus (HCV) genotype 1b-Con1. The settings on record: Hepatitis C virus. In general terms: In antiviral work, replicon cells carry a viral genome segment that copies itself.
The mark [1] stands for this setting: 72 h, stable subgenomic replicon cell line, luciferase reporter, three days incubation, values given as ranges or bound.
[2] abbreviates: same test, cell prints lower limit in nM and upper limit in μM.

Where only a bound is given, the exact number is not on record here.

In turn, `CC(C)c1ccc2c(Nc3cc(C(=O)NCCNC(=O)c4ccc(Sc5ccc(N)cc5)c(Nc5ncnc6nc(C(C)C)ccc56)c4)ccc3Sc3ccc(N)cc3)ncnc2n1` [Example 5, N,N′-(ethane-1,2-diyl)bis(4-(4-aminophenylthio)-3-(7-isopropylpyrido[2,3-d]pyrimidin-4-ylamino)benzamide)] gave an IC50 under setting [1] of 0.1 to 10 nM. As to `CC(C)c1ccc2c(Nc3cc(C#Cc4ccc(Oc5ccc(N)cc5)c(Nc5ncnc6nc(C(C)C)ccc56)c4)ccc3Oc3ccc(N)cc3)ncnc2n1` [Example 20], the IC50 under setting [1] fell in the range of 0.1 to 10 nM. Still for that read-out and setting: in the case of `CC(C)c1ccc2c(Nc3cc(C(=O)N4CCN(C(=O)c5ccc(Sc6ccc(N)cc6)c(Nc6ncnc7nc(C(C)C)ccc67)c5)CC4)ccc3Sc3ccc(N)cc3)ncnc2n1` [Example 6, piperazine-1,4-diylbis((4-(4-aminophenylthio)-3-(7-isopropylpyrido[2,3-d]pyrimidin-4-ylamino)phenyl)methanone)] it was 0.1 to 10 nM. The same measure, in the same setting: to `CC(C)c1ccc2c(Nc3cc(C#Cc4ccc(Sc5ccc(N(C)C)cc5)c(Nc5ncnc6nc(C(C)C)ccc56)c4)ccc3Sc3ccc(N(C)C)cc3)ncnc2n1` [Example 16] belongs 0.1 to 10 nM; to `CC(C)c1ccc2c(Nc3cc(CN(Cc4ccc(Sc5ccc(N)cc5)c(Nc5ncnc6nc(C(C)C)ccc56)c4)c4ccccc4)ccc3Sc3ccc(N)cc3)ncnc2n1` [Example 9], less than 0.1 nM; to `CC(C)c1ccc2c(Nc3cc(C#Cc4ccc(Oc5ccccc5)c(Nc5ncnc6nc(C(C)C)ccc56)c4)ccc3Oc3ccccc3)ncnc2n1` [Example 17], 0.1 to 10 nM.

Take `CC(C)c1ccc2c(Nc3cc(C#Cc4ccc(Oc5ccc(O)cc5)c(Nc5ncnc6nc(C(C)C)ccc56)c4)ccc3Oc3ccc(O)cc3)ncnc2n1` [Example 25]: the IC50 under setting [1] was 0.1 to 10 nM. The compound `CC(C)c1ccc2c(Nc3cc(CN(Cc4ccc(Sc5ccc(N)cc5)c(Nc5ncnc6nc(C(C)C)ccc56)c4)C(C)C)ccc3Sc3ccc(N)cc3)ncnc2n1` [Example 24] gave an IC50 under setting [1] of 0.1 to 10 nM. On the same count and under the same terms, in the case of `CC(C)c1ccc2c(Nc3cc(-c4ccc(-c5ccc(Sc6ccc(N)cc6)c(Nc6ncnc7nc(C(C)C)ccc67)c5)cc4)ccc3Sc3ccc(N)cc3)ncnc2n1` [Example 4, 4,4″-(4-amino-phenylsulfanyl)-N*3*,N*3″*-(7-isopropylpyrido[2,3-d]pyrimidin-4-yl)-[1,1′;4′,1″]terphenyl-3,3″-diamine] it was 0.1 to 10 nM; in that of `CC(C)c1ccc2c(Nc3cc(C#Cc4ccc(Sc5ccc(OCc6ccccc6)cc5)c(Nc5ncnc6nc(C(C)C)ccc56)c4)ccc3Sc3ccc(OCc4ccccc4)cc3)ncnc2n1` [Example 26], 0.1 to 10 nM.

For `Cc1ccc2c(Nc3cc(C#Cc4ccc(Sc5ccc(N)cc5)c(Nc5ncnc6nc(C)ccc56)c4)ccc3Sc3ccc(N)cc3)ncnc2n1` [Example 21], the IC50 under setting [1] was in the range of 0.1 to 10 nM. The same measure, in the same setting: in the case of `CC(C)c1ccc2c(Nc3cc(NC(=O)c4ccc(Sc5ccc(N)cc5)c(Nc5ncnc6nc(C(C)C)ccc56)c4)ccc3Sc3ccc(N)cc3)ncnc2n1` [Example 2, 4-(4-aminophenylthio)-N-(4-(4-aminophenylthio)-3-(7-isopropylpyrido[2,3-d]pyrimidin-4-ylamino)phenyl)-3-(7-isopropylpyrido[2,3-d]pyrimidin-4-ylamino)benzamide] it was 0.1 to 10 nM.

For `Cc1ccc2c(Nc3cc(C#Cc4ccc(Sc5ccc(F)cc5)c(Nc5ccnc6nc(C)ccc56)c4)ccc3Sc3ccc(F)cc3)ccnc2n1` [Example 22], under setting [1], the IC50 was in the range of 10 to 100 nM. The same measure, in the same setting: to `CC(C)c1ccc2c(Nc3cc(C#Cc4ccc(Sc5ccc(N)cc5)c(Nc5ncnc6nc(C(C)C)ccc56)c4)ccc3Sc3ccc(N)cc3)ncnc2n1` [Example 8, N,N′-(5,5′-(ethyne-1,2-diyl)bis(2-(4-aminophenylthio)-5,1-phenylene))bis(7-isopropylpyrido[2,3-d]pyrimidin-4-amine)] belongs less than 0.1 nM; to `CC(C)c1ccc2c(Nc3cc(C#Cc4ccc(Sc5ccc(F)cc5)c(Nc5ncnc6nc(C(C)C)ccc56)c4)ccc3Sc3ccc(F)cc3)ncnc2n1` [Example 14], 0.1 to 10 nM. Take `CC(C)c1ccc2c(Nc3cc(C#Cc4ccc(Sc5ccc(O)cc5)c(Nc5ncnc6nc(C(C)C)ccc56)c4)ccc3Sc3ccc(O)cc3)ncnc2n1` [Example 18]: the IC50 under setting [1] was 0.1 to 10 nM. Same read-out and setting: in the case of `CC(C)c1ccc2c(Nc3cc(C#Cc4ccc(Sc5cccc(N)c5)c(Nc5ncnc6nc(C(C)C)ccc56)c4)ccc3Sc3cccc(N)c3)ncnc2n1` [Example 19] it was 0.1 to 10 nM. In the case of `CC(C)c1ccc2c(Nc3cc(C(=O)NCCNC(=O)c4ccc(Sc5ccccc5)c(Nc5ncnc6nc(C(C)C)ccc56)c4)ccc3Sc3ccccc3)ncnc2n1` [Example 10], under setting [2], the IC50 was 100 to 10000 nM. In turn, `CC(C)c1ccc2c(Nc3cc(-c4ccc(-c5ccc(Sc6ccc(N)cc6)c(Nc6ncnc7nc(C(C)C)ccc67)c5)nc4)ccc3Sc3ccc(N)cc3)ncnc2n1` [Example 12] came in with an IC50 under setting [1] of 0.1 to 10 nM. Same read-out and setting: in the case of `CC(C)c1ccc2c(Nc3cc(C#Cc4ccc(Sc5ccccc5)c(Nc5ncnc6nc(C(C)C)ccc56)c4)ccc3Sc3ccccc3)ncnc2n1` [Example 15] it was 0.1 to 10 nM; in that of `CC(C)c1ccc2c(Nc3cc(NC(=O)Nc4ccc(Sc5ccc(N)cc5)c(Nc5ncnc6nc(C(C)C)ccc56)c4)ccc3Sc3ccc(N)cc3)ncnc2n1` [Example 3, 1,3-bis(4-(4-aminophenylthio)-3-(7-isopropylpyrido[2,3-d]pyrimidin-4-ylamino)phenyl)urea], 10 to 100 nM; in that of `Cc1ccc2c(Nc3cc(-c4ccc(-c5ccc(Sc6ccc(N)cc6)c(Nc6ncnc7nc(C)ccc67)c5)cc4)ccc3Sc3ccc(N)cc3)ncnc2n1` [Example 13], 0.1 to 10 nM. Still for that read-out and setting: in the case of `CC(C)c1ccc2c(Nc3cc(C#Cc4ccc(Oc5ccc(CO)cc5)c(Nc5ncnc6nc(C(C)C)ccc56)c4)ccc3Oc3ccc(CO)cc3)ncnc2n1` [Example 23] it was 0.1 to 10 nM; in that of `COc1ccc(CN(Cc2ccc(Sc3ccc(N)cc3)c(Nc3ncnc4nc(C(C)C)ccc34)c2)Cc2ccc(Sc3ccc(N)cc3)c(Nc3ncnc4nc(C(C)C)ccc34)c2)c(OC)c1` [Example 11], 0.1 to 10 nM; in that of `CC(C)c1ccc2c(Nc3cc(C(=O)NNC(=O)c4ccc(Sc5ccc(N)cc5)c(Nc5ncnc6nc(C(C)C)ccc56)c4)ccc3Sc3ccc(N)cc3)ncnc2n1` [Example 1, 4-(4-aminophenylthio)-N′-(4-(4-aminophenylthio)-3-(7-isopropylpyrido[2,3-d]pyrimidin-4-ylamino)benzoyl)-3-(7-isopropylpyrido[2,3-d]pyrimidin-4-ylamino)benzohydrazide], 0.1 to 10 nM. In turn, `CC(C)c1ccc2c(Nc3cccc(C(=O)Nc4ccc(Sc5ccc(N)cc5)c(Nc5ncnc6nc(C(C)C)ccc56)c4)c3)ncnc2n1` [Example 7, N-(4-(4-aminophenylthio)-3-(7-isopropylpyrido[2,3-d]pyrimidin-4-ylamino)phenyl)-3-(7-isopropylpyrido[2,3-d]pyrimidin-4-ylamino)benzamide] showed an IC50 under setting [2] of 100 to 10000 nM. For `COc1ccc(Sc2ccc(CN(Cc3ccc(Sc4ccc(OC)cc4)c(Nc4ccnc5nc(C)ccc45)c3)C(C)C)cc2Nc2ccnc3nc(C)ccc23)cc1` [Example 28], the half-inhibitory concentration (IC50) under setting [1] lay within 10 to 100 nM.

A word on the IC50: it is the point on the concentration scale where inhibition reaches its midpoint. Low readings indicate inhibition by little substance, high ones a need for much substance.
